Measurements as given in PMC2131780, “A Tale of Switched Functions: From Cyclooxygenase Inhibition to M-Channel Modulation in New Diphenylamine Derivatives” (PLoS ONE, 2007).

What was measured:
[1] = target: T1, Kv7.2/3 K+ channels (M-channels) (Homo sapiens, UniProt O43525+O43526); assay: Whole-cell patch-clamp of recombinant Kv7.2/3 channels in CHO cells; assay type: cell-based; settings: for M-channels (Kv7.2/Kv7.3) effect (opener / blocker / inactive): Kv7.2 and Kv7.3 coexpressed in CHO cells; for EC50: concentration-dependent left-shift ΔV50, sigmoidal fit, read-out: M-channel opener potency EC50; for ΔV50 (mV), left-shift in half-activation potential: Kv7.2/3 in CHO cells
T1 construct: expressed in transfected cells; host or cells: CHO cells
Experimental: Chinese hamster ovary (CHO) cells were grown in Dulbecco's modified Eagle's medium (DMEM) supplemented with 2 mM glutamine, 10% fetal calf serum and antibiotics. Briefly, 40,000 cells seeded on poly-D-lysine-coated glass coverslips (13 mm diameter) in a 24-multiwell plate were transfected with pIRES-CD8 (0.5 µg) as a marker for transfection, and with Kv7.2 (0.5 µg) and Kv7.3 (0.5 µg). For electrophysiology, transfected cells were visualized approximately 40 hours following transfection, using anti-CD8 antibody-coated beads. Transfection was performed using Fugene 6 (Roche, Indianapolis IN, USA) according to the manufacturer's protocol.
Voltage-clamp recordings in CHO cells were performed, using the whole-cell configuration of the patch-clamp technique. Signals were amplified using an Axopatch 200B patch-clamp amplifier (Molecular Devices, Sunnyvale, CA), sampled at 2 kHz and filtered at 800 Hz via a 4-pole Bessel low pass filter. […] The patch pipettes were pulled from borosilicate glass (Warner Instrument Corp, USA) with a resistance of 2–5 MΩ. For K^+ current recordings in CHO cells, the intracellular pipette solution contained (in mM): 130 KCl, 1 MgCl2, 5 K2ATP, 5 EGTA, 10 HEPES, adjusted with KOH to pH 7.4 (290 mOsm). The extracellular solution contained (in mM): 140 NaCl, 4 KCl, 1.8 CaCl2, 1.2 MgCl2, 11 glucose, 5.5 HEPES, adjusted with NaOH to pH 7.4 (310 mOsm). Series resistances (3–13 MΩ) were compensated (75–90%) and periodically monitored.
Data analysis was performed using the Clampfit program (pClamp 9.2, Molecular Devices), Microsoft Excel (Microsoft) and Prism 4.0 (GraphPad). Chord conductance (G) was calculated by using the following equation: [drawing 1] where I corresponds to the current amplitude measured at the end of the pulse and Vrev, the calculated reversal potential. G was estimated at various test voltages V and then, normalized to a maximal conductance value, Gmax. Activation curves were fitted by one Boltzmann distribution: [drawing 2] where V50 is the voltage at which the current is half-activated and s is the slope factor. All data were expressed as mean±SEM. Statistically significant differences were assessed by Student's t-test. Analysis of sEPSCs and sIPSCs was done using the Clampfit program (pClamp 9.2, Molecular Devices) and included evaluation of the individual events as well as the average event amplitude and the integral of the event (total charge transfer).

[2] = system: COX enzymes (CT26 mouse colon adenocarcinoma cells); assay: COX inhibition, PGE2 production in CT26 cells; assay type: cell-based; settings: for IC50: average of two experiments in triplicate, read-out: COX inhibition (IC50, µM) CT26
Description: (§1) In addition, the aromatic rings of the diphenylamine moiety were substituted with different electron donating or withdrawing groups. In a first screen, two parameters were checked: (a) the non-selective inhibition of COX-1/COX-2 enzyme activities, measured by the production of PGE2 in cultured mouse colon adenocarcinoma (CT26) and mouse Lewis lung carcinoma cells (D122) cells; (b) the M-channel activity, measured by the heterologous coexpression of Kv7.2 and Kv7.3 subunits in Chinese hamster ovary (CHO) cells.
(§2) Mouse colon adenocarcinoma CT26 and mouse Lewis lung carcinoma D122 cells were grown in DMEM (D122) or RPMI (CT26) supplemented with 10% fetal calf serum, 4% glutamine, 1% penicillin-streptomycin-nystatin and 3% non essential amino acids (D122) and maintained in a humidified 37°C incubator with 5% CO2. For the COX assays, cells were grown onto 24 multiwell plates. Before the assay, cells were washed with serum-free medium; then tested compounds were added to the medium and incubated for 30 min at 37°C after which 30 µM arachidonic acid was added and incubated for additional 20 min. At the end of the incubations, 10 µM indomethacin was added to stop the reaction and medium was transferred to another 24 multiwell plate for measuring PGE2 production by radioimmunoassay (DuPont-NEN; Boston, MA) according to manufacturer protocol. Protein determination was assayed on scraped cells and was used to normalize the amount of PGE2 production. Assays with purified ovine COX-1 and human recombinant COX-2 were performed using the COX inhibitor screening assay (Cayman chemical company, Ann Arbor, MI), according to manufacturer protocol.

[3] = system: COX enzymes (D122 mouse Lewis lung carcinoma cells); assay: COX inhibition, PGE2 production in D122 cells; assay type: cell-based; settings: average of two experiments in triplicate
Description: as §1, §2

[4] = system: MES-induced tonic hind limb extension; assay: Maximal electroshock seizure (MES) model; assay type: in vivo, mouse; settings: mice, intraperitoneal, 30 min before electroshock; not shown
Experimental: This test is generally thought to be a model of generalized tonic-clonic seizure in human.
The anti-convulsant effect was measured by the maximal electroshock seizure model (MES) in ICR mice as previously described. The procedures followed for experimentation and maintenance of the animals were approved by the animal research ethics committee of Tel Aviv University and in accordance with the Guide for the Care and Use of Laboratory Animals (1996, National Academy of Sciences, Washington DC). Briefly, maximal electroshock was induced in adult mice by means of two transcorneal electrodes delivering an alternative current of 50 mA at 60 Hz for 0.2 sec using rodent shocker (Hugo Sachs Electronik, type 221). […] The drugs dissolved in 0.9% saline were administered intraperitoneally 30 min before the electroshock was performed. Animals failing to show tonic hind limb extension were scored as protected and were expressed in percentage.

T1 sequence (O43526 whole entry): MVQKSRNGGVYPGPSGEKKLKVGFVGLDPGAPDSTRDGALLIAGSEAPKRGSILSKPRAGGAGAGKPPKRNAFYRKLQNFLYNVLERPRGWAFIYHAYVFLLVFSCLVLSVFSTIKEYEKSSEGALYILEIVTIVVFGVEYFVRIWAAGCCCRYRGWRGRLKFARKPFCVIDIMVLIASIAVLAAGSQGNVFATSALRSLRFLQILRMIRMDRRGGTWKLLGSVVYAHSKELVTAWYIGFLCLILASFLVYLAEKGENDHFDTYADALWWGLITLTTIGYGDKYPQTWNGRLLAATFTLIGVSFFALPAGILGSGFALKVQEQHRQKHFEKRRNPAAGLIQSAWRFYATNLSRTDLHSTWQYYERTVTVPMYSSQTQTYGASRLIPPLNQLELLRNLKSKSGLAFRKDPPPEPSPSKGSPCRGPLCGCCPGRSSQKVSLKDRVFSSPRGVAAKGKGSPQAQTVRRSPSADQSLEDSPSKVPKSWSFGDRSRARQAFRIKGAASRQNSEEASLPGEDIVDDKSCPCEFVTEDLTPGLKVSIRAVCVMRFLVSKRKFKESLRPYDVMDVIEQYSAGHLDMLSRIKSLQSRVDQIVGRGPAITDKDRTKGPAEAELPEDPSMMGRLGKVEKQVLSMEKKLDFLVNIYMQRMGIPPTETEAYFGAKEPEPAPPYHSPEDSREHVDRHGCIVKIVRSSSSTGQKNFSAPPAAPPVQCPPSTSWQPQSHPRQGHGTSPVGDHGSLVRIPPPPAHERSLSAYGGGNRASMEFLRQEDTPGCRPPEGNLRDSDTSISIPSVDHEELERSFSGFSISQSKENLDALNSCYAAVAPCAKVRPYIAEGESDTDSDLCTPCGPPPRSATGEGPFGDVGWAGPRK
T1 sequence (O43525 whole entry): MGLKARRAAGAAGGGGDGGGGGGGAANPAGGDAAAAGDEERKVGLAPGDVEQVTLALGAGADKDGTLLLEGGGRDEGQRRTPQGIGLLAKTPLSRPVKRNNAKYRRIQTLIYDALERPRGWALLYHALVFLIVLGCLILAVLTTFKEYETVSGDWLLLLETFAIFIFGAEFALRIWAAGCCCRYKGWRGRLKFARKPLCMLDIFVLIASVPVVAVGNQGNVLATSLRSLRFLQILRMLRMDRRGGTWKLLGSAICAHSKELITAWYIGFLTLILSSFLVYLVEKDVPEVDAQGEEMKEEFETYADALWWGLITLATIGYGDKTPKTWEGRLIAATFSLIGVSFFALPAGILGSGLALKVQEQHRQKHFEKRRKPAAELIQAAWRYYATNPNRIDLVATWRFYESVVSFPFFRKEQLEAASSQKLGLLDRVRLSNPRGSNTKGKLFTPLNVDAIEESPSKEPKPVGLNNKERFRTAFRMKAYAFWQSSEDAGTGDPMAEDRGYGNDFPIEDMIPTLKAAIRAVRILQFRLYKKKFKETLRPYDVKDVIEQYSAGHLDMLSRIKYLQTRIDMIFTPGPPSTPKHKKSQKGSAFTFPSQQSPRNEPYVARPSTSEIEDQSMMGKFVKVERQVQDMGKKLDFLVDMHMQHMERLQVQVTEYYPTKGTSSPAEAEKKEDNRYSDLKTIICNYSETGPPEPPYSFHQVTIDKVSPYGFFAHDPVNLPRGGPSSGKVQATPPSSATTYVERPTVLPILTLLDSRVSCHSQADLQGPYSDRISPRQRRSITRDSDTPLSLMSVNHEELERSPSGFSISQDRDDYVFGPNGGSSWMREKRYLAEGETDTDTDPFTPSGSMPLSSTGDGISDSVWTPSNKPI

Row | M-channels (Kv7.2/Kv7.3) effect (opener / blocker / inactive) [1] | EC50 [1] | SMILES | also measured
1 | do not activate |  | CC(C(=O)O)c1ccc(-c2ccccc2)c(F)c1 (stereo not shown) [flurbiprofen, reference compound] | 
2 | openers |  | O=C(O)c1ccccc1Nc1cccc(C(F)(F)F)c1 [flufenamate, reference compound] | 
3 | do not activate |  | CC(C(=O)O)c1cccc(Oc2ccccc2)c1 (stereo not shown) [fenoprofen, reference compound] | 
4 | opener | 2.6 µM | O=C(O)Cc1ccccc1Nc1c(Cl)cccc1Cl [Diclofenac, reference compound] | M-channels (Kv7.2/Kv7.3) effect (opener / blocker / inactive) ([1]; listed as diclofenac): openers; IC50 [2]: 0.003 µM; IC50 [3]: 0.1 µM
5 | do not activate |  | COc1ccc2cc([C@H](C)C(=O)O)ccc2c1 [naproxen, reference compound] | 
6 | opener | 17 µM | O=C(Cc1cc([N+](=O)[O-])ccc1Nc1c(Cl)cccc1Cl)NCCO [Compound 7] | ΔV50 (mV), left-shift in half-activation potential [1]: −12.2 mV; effect on COX activity (Figure 1) [2]: completely unaffected; IC50 [2]: > 50 µM; IC50 [3]: > 50 µM
7 | openers |  | Cc1cccc(Nc2ccccc2C(=O)O)c1C [mefenamate, reference compound] | 
8 | opener | 25 µM | Cc1ccc(Cl)c(Nc2ccccc2C(=O)O)c1Cl [Meclofenamic acid, reference compound] | ΔV50 (mV), left-shift in half-activation potential [1]: −22.7 mV; M-channels (Kv7.2/Kv7.3) effect (opener / blocker / inactive) ([1]; listed as meclofenamate): openers
9 |  |  | CCCC(CCC)C(=O)O [sodium valproate] | dose that fully prevented hind limb extension [4]: 500 mg/kg
10 |  |  | O=C1NC(=O)C(c2ccccc2)(c2ccccc2)N1 [phenytoin] | dose that fully prevented hind limb extension [4]: 20 mg/kg
